# Where two headings read alike, the source gives them in different places.
# What was measured:
# [1] = biological target: T1, BaAAO (Bjerkandera adusta, UniProt A0ABF7PQ87); assay: Steady-state bi-substrate kinetics of alcohol oxidation; assay type: biochemical; settings: BaAAO, alcohol substrate 3-Cl-4-methoxybenzyl alcohol; 50 mM phosphate, pH 6.0, 25 °C
# Protocol: (§1) Bi-substrate kinetics were analyzed by concurrently varying the concentration of the aforementioned alcohols and electron acceptors. Oxygen assays were carried out in a screw-cap cuvette where the alcohol was equilibrated with the desired concentration of O2 by bubbling with the appropriate O2/N2 gas mixture (4%, 10%, 21%, 44%, and 100% O2) for 10 min. Alcohol oxidation was initiated by the addition of the enzyme and followed at 285 nm for 4-methoxybenzaldehyde production and 295 nm in the case of 3-Cl-4-methoxybenzaldehyde (Δε285 = 16,950 M^−1cm^−1 and Δε295 = 15,000 M^−1cm^−1, respectively) ([Ferreira et al., 2005]). […]. BQ solutions were prepared immediately prior to use and protected from the light to avoid photodegradation.
# (§2) The initial rates for bi-substrate kinetics were fitted to Eq. 1 or Eq. 2, which describe sequential and ping-pong kinetic mechanisms, respectively. […]
# [2] = biological target: T2, PeAAO (Pleurotus eryngii, UniProt O94219); assay: as above; assay type: biochemical; settings: alcohol substrate 3-Cl-4-methoxybenzyl alcohol, 50 mM phosphate, pH 6.0, 25 °C
# T2 sequence (O94219 entry or part of it): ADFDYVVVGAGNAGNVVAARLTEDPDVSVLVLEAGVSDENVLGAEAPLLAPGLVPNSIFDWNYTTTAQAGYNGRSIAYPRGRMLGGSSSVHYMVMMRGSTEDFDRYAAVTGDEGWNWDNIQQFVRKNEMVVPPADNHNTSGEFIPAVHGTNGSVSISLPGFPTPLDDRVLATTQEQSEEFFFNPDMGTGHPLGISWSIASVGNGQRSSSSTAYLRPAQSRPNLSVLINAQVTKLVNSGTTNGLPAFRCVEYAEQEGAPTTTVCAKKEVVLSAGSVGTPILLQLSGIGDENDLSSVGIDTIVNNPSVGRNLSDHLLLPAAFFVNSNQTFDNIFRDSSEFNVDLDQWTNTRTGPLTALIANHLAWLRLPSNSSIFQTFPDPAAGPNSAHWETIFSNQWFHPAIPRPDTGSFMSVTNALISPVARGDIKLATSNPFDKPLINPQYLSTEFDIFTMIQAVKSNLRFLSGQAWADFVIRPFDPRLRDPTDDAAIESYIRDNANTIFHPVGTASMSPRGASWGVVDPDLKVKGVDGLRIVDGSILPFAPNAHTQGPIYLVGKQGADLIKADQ
# Protocol: as §1, §2
# [3] = biological target: T2, PeAAO; assay: Stopped-flow oxidative half-reaction (flavin reoxidation by O2 or BQ); settings: for second phase of reoxidation (k ox B→C): two-step model
# [4] = biological target: T2, PeAAO; assay: Redox state of the enzyme during turnover (stopped-flow); assay type: biochemical; settings: BQ as electron acceptor, regardless of the alcohol substrate, anaerobic, pH 6.0, 25 °C
# Protocol: Experiments with O2 were performed with the alcohol under air-saturated conditions, while in the case of BQ, the alcohol was mixed with saturating concentration of BQ (300 µM) under anaerobic conditions. The spectral evolution of the enzymes during redox turnover was recorded between 350 and 700 nm.
# [5] = biological target: T1, BaAAO; assay: as above; assay type: biochemical; settings: BQ as electron acceptor, both alcohols, anaerobic, pH 6.0, 25 °C
# [6] = biological target: T1, BaAAO; assay: Isothermal titration calorimetry with BQ; assay type: binding
# Protocol: (§3) The interaction parameters of the enzymes with BQ were determined using an Auto-ITC200 high-sensitivity microcalorimeter (MicroCal, Malvern-Panalytical) thermostatted at 25 °C. Enzyme solutions (∼6 μM for BaAAO and 15 μM for PeAAO) were titrated with BQ (∼50 µM for BaAAO and ∼100 μM for PeAAO) in 50 mM Tris/HCl, pH 7.0. Up to 19 injections of 2 µL were programmed with enough time spacing for the signal to recover the baseline. The association constant (K a), the enthalpy change (ΔH) and the apparent stoichiometry (n) were estimated through non-linear regression of the experimental data using a model for one binding site implemented in Origin (Origin 7.0, OriginLab). The dissociation constant (K d), the Gibbs energy change (ΔG), and the entropy change (–TΔS) were obtained from basic thermodynamic relationships.
# [7] = biological target: T2, PeAAO; assay: Isothermal titration calorimetry with BQ; assay type: binding
# Protocol: as §3
# [8] = biological target: T2, PeAAO; parameters: method as in Ferreira et al. (2023); settings: alcohol substrate 4-methoxybenzyl alcohol, 50 mM phosphate, pH 6.0, 25 °C, ref Ferreira et al. (2023); cited from earlier work
# [9] = biological target: T1, BaAAO; parameters: method as in Ferreira et al. (2023); settings: alcohol substrate 4-methoxybenzyl alcohol, 50 mM phosphate, pH 6.0, 25 °C, ref Ferreira et al. (2023); cited from earlier work
# T1 sequence (A0ABF7PQ87 entry or part of it): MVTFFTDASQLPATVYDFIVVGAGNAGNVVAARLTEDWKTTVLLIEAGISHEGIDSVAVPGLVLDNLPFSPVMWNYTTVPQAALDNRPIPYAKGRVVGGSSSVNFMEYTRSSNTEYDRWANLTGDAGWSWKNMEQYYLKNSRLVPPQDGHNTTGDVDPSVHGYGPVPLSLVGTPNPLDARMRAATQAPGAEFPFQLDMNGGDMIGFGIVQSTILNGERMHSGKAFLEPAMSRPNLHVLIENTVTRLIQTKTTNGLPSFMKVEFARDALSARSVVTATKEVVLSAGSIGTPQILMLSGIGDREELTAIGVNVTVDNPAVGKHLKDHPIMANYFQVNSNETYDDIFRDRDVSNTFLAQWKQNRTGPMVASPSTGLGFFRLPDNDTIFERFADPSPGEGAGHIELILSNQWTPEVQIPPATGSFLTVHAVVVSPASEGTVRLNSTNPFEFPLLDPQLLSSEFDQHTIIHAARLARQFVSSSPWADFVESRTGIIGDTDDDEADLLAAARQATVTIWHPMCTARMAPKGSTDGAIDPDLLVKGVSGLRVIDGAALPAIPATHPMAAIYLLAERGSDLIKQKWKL
smiles,measurement,setting,value
"O=C1C=CC(=O)C=C1 [BQ, 1,4-benzoquinone]",k cat/K m(acceptor),[1],353000 ± 65000 M⁻¹ s⁻¹
same,k cat/K m(acceptor),[2],722000 ± 64000 M⁻¹ s⁻¹
same,"reverse rate constant (k rev), y-axis intercept of reoxidation",[3]; PeAAO,55 s⁻¹
same,second phase of reoxidation (k ox B→C),[3]; PeAAO reoxidized with 50 µM of BQ,5 to 10 s⁻¹
same,second phase of reoxidation (k ox B→C),[3]; PeAAO reoxidized with 100 µM of BQ,15 to 20 s⁻¹
same,first phase share of the total amplitude of reoxidation,"[3]; PeAAO, 50 µM of BQ",more than 50%
same,first phase share of the total amplitude of reoxidation,"[3]; PeAAO, 100 µM of BQ",> 85%
same,enzyme in the oxidized state during turnover,[4],85%–92%
same,enzyme in the oxidized state during turnover,[5],~90%
same,Kd,[6],0.05 µM
same,K d of alcohols higher than K d of BQ,[6]; BaAAO,"≤ 15,000 fold"
same,ΔH,"[6]; BaAAO, ITC, 25 °C, 50 mM Tris/HCl, pH 7.0, error ±0.4",-89.5 kJ/mol
same,ΔG,"[6]; BaAAO, ITC, 25 °C, 50 mM Tris/HCl, pH 7.0, from K d",-41.4 kJ/mol
same,–TΔS,"[6]; BaAAO, ITC, 25 °C, 50 mM Tris/HCl, pH 7.0, –TΔS = ΔG–ΔH",48.1 kJ/mol
same,Kd,[7],27.1 µM
same,ΔH,"[7]; PeAAO, ITC, 25 °C, 50 mM Tris/HCl, pH 7.0, error ±0.4",-105 kJ/mol
same,ΔG,"[7]; PeAAO, ITC, 25 °C, 50 mM Tris/HCl, pH 7.0, from K d",-25.9 kJ/mol
same,–TΔS,"[7]; PeAAO, ITC, 25 °C, 50 mM Tris/HCl, pH 7.0, –TΔS = ΔG–ΔH",79.1 kJ/mol
same,k cat/K m(acceptor),[8],"1,025 ± 154 s^−1mM^−1"
same,k cat/K m(acceptor),[9],450000 ± 70000 M⁻¹ s⁻¹

# — article PMC11330772, “Unveiling the kinetic versatility of aryl-alcohol oxidases with different electron acceptors” (Frontiers in Bioengineering and Biotechnology, 2024)
